The structures appear in SMILES notation.

The term IC50 denotes the point on the concentration scale where inhibition reaches its midpoint.

The experiment has as its target T1, human TRH-DE (Homo sapiens, UniProt Q9UKU6).
T1 construct: expressed in transfected cells; host or cells: Expi 293 cells (transient expression), membrane fraction
T1 sequence (Q9UKU6 1-1069): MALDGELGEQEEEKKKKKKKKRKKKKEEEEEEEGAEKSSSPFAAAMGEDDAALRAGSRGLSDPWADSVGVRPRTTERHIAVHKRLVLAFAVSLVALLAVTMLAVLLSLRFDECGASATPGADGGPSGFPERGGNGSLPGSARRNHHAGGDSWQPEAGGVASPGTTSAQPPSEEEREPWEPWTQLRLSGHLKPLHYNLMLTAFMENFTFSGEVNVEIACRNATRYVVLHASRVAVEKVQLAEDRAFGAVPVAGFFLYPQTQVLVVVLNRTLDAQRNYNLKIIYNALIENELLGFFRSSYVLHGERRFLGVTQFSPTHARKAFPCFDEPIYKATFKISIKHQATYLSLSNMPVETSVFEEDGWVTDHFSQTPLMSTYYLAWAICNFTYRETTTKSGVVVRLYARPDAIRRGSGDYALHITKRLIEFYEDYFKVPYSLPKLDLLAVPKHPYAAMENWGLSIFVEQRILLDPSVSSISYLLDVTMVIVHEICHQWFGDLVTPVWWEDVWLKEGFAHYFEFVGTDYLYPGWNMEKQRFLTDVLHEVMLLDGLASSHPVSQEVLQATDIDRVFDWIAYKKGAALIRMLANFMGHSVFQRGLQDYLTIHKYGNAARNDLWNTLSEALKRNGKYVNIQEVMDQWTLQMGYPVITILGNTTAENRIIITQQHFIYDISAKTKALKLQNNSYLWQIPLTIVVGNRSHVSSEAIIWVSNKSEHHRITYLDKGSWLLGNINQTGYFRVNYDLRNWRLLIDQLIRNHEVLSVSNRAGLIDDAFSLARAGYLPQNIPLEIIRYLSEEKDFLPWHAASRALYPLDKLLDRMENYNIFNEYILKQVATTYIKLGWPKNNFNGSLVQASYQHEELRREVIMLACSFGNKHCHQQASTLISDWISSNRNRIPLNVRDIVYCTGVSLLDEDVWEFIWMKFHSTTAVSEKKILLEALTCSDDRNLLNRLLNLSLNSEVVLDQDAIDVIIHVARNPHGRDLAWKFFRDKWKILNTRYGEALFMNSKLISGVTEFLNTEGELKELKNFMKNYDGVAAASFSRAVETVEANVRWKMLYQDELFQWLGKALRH
As to the kind of experiment: TRH-DE inhibition test (RapidFire MS measurement of product Cyclo (His-Pro)). It counts as biochemical. The note with it: membrane fraction of Expi 293 cells expressing human TRH-DE; 10 μM TRH substrate; room temperature, 2 hours; 16-point concentration test. Summed up: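 Membrane fraction from Expi 293 cells transiently expressing human TRH-DE, at 4 μg/ml in phosphate buffer pH 7.4 with 200 μM bacitracin, reacted with compound and 10 μM substrate for 2 h at room temperature. Cyclo(His-Pro) measured by RapidFire MS against an isotope internal standard. IC50 from 16-point curves.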
`C[C@@H]1Cn2nc(Cl)cc2C(=O)N1C1CC2(C1)CN(S(=O)(=O)c1ccccc1F)C2` [Example 223]: 18 nM corresponded to half-maximal inhibition (IC50).

In turn, `C[C@@H]1Cn2nc(C(C)(F)F)cc2C(=O)N1C1CC2(C1)CN(S(=O)(=O)c1ccccc1F)C2` [Example 224] returned an IC50 of 41 nM.

Regarding `C[C@@H]1Cn2nc(C3CC3)cc2C(=O)N1C1CC2(C1)CN(S(=O)(=O)c1ccccc1F)C2` [Example 225], the midpoint of inhibition, the IC50, lay at 11 nM.

`C[C@@H]1Cn2nc(C3(F)CC3)cc2C(=O)N1C1CC2(C1)CN(S(=O)(=O)c1ccccc1F)C2` [Example 226] showed an IC50 of 16 nM.

With `C[C@@H]1Cn2nc(C3(C(F)(F)F)CC3)cc2C(=O)N1C1CC2(C1)CN(S(=O)(=O)c1ccccc1F)C2` [Example 227], half-maximal inhibition (IC50) required 9 nM.

`C[C@@H]1Cn2nc(C(F)(F)F)cc2C(=O)N1C1CC2(C1)CN(S(=O)(=O)c1ccccc1F)C2` [Example 228] returned a half-maximal inhibitory concentration (IC50) of 48 nM.

The molecule `C[C@@H]1Cn2ncc(Cl)c2C(=O)N1C1CC2(C1)CN(S(=O)(=O)c1ccccc1F)C2` [Example 229] yielded an IC50 of 33 nM.

`C[C@@H]1Cn2ncc(Br)c2C(=O)N1C1CC2(C1)CN(S(=O)(=O)c1ccccc1F)C2` [Example 230] yielded an IC50 of 19 nM.

As to `C[C@@H]1Cn2nc(C3CC3)c(F)c2C(=O)N1C1CC2(C1)CN(S(=O)(=O)c1ccccc1F)C2` [Example 231], inhibition was half-maximal at 13 nM (IC50).

`C[C@@H]1Cn2nc(F)c(Br)c2C(=O)N1C1CC2(C1)CN(S(=O)(=O)c1ccccc1F)C2` [Example 232] registered an IC50 of 21 nM. This IC50 lies about 1.6-fold higher than the previous one.

As for `C[C@@H]1Cn2cnc(Br)c2C(=O)N1C1CC2(C1)CN(S(=O)(=O)c1ccccc1F)C2` [Example 233], the IC50 amounted to 31 nM.

Molecule `C[C@@H]1COc2nc([C@H]3C[C@H]3F)sc2C(=O)N1C1CC2(C1)CN(S(=O)(=O)c1ccccc1F)C2` [Example 234, (6R)-2-[(1S,2R)-2-fluorocyclopropyl]-7-[2-(2-fluorophenyl)sulfonyl-2-azaspiro[3.3]heptan-6-yl]-6-methyl-5,6-dihydrothiazolo[5,4-f][1,4]oxazepin-8-one] registered an IC50 of 4 nM.

Molecule `C[C@@H]1COc2nc([C@@H]3C[C@H]3F)sc2C(=O)N1C1CC2(C1)CN(S(=O)(=O)c1ccccc1F)C2` [Example 235, (6R)-2-[(1R,2R)-2-fluorocyclopropyl]-7-[2-(2-fluorophenyl)sulfonyl-2-azaspiro[3.3]heptan-6-yl]-6-methyl-5,6-dihydrothiazolo[5,4-f][1,4]oxazepin-8-one] yielded an IC50 of 3 nM.

Molecule `C[C@@H]1COc2nc([C@@H]3C[C@@H]3F)sc2C(=O)N1C1CC2(C1)CN(S(=O)(=O)c1ccccc1F)C2` [Example 236, (6R)-2-[(1R,2S)-2-fluorocyclopropyl]-7-[2-(2-fluorophenyl)sulfonyl-2-azaspiro[3.3]heptan-6-yl]-6-methyl-5,6-dihydrothiazolo[5,4-f][1,4]oxazepin-8-one] gave an IC50 of 2 nM.

In turn, `C[C@@H]1COc2nc([C@H]3C[C@@H]3F)sc2C(=O)N1C1CC2(C1)CN(S(=O)(=O)c1ccccc1F)C2` [Example 237, (6R)-2-[(1S,2S)-2-fluorocyclopropyl]-7-[2-(2-fluorophenyl)sulfonyl-2-azaspiro[3.3]heptan-6-yl]-6-methyl-5,6-dihydrothiazolo[5,4-f][1,4]oxazepin-8-one] yielded an IC50 of 3 nM.

`C[C@@H]1Cn2c(cnc2C(F)(F)F)C(=O)N1C1CC2(C1)CN(S(=O)(=O)c1ccccc1F)C2` [Example 238, (6R)-7-[2-(2-fluorophenyl)sulfonyl-2-azaspiro[3.3]heptan-6-yl]-6-methyl-3-(trifluoromethyl)-5,6-dihydroimidazo[1,5-a]pyrazin-8-one] displayed an IC50 of 357 nM.

The molecule `CC1COc2ccccc2C(=O)N1C1CC2(C1)CN(S(=O)(=O)c1ccccc1F)C2` (stereo not shown) [Example 239, 4-[2-(2-fluorophenyl)sulfonyl-2-azaspiro[3.3]heptan-6-yl]-3-methyl-2,3-dihydro-1,4-benzoxazepin-5-one] displayed an IC50 of 11 nM.

`CC1Cc2ccccc2C(=O)N1C1CC2(C1)CN(S(=O)(=O)c1ccccc1F)C2` (stereo not shown) [Example 240] had an IC50 of 14 nM.

`Cc1nn(C2CC3(C2)CN(S(=O)(=O)c2ccccc2)C3)c(=O)c2ccccc12` [Example 241] registered an IC50 of 616 nM.

On to `Cc1nn(C2CC3(C2)CN(S(=O)(=O)c2ccccc2F)C3)c(=O)c2ccccc12` [Example 242], for which the midpoint of inhibition, the IC50, lay at 655 nM. This IC50 and that of the molecule before are within 1.5-fold of each other.

As for `Cc1nn(C2CC3(C2)CN(S(=O)(=O)c2ccccc2F)C3)c(=O)c2ncccc12` [Example 243], the IC50 turned out to be 436 nM.

`O=C1c2ccccc2C2(CC2)N1C1CC2(C1)CN(S(=O)(=O)c1ccccc1F)C2` [Example 244] came in with an IC50 of 42 nM.

Consider `CCN1C[C@@H](C)N(C2CC3(C2)CN(S(=O)(=O)c2ccccc2F)C3)C(=O)c2ncccc21` [Example 245, (3R)-1-ethyl-4-[2-(2-fluorophenyl)sulfonyl-2-azaspiro[3.3]heptan-6-yl]-3-methyl-2,3-dihydropyrido[3,2-e][1,4]diazepin-5-one], for which 2 nM corresponded to half-maximal inhibition (IC50).

Take `COCCCN1C[C@@H](C)N(C2CC3(C2)CN(S(=O)(=O)c2ccccc2F)C3)C(=O)c2ncccc21` [Example 246]: 22 nM corresponded to half-maximal inhibition (IC50).

Molecule `C[C@@H]1CN(C)c2nc(C(F)(F)F)ccc2C(=O)N1C1CC2(C1)CN(S(=O)(=O)c1ccccc1F)C2` [Example 247, (3R)-4-[2-(2-fluorophenyl)sulfonyl-2-azaspiro[3.3]heptan-6-yl]-1,3-dimethyl-8-(trifluoromethyl)-2,3-dihydropyrido[2,3-e][1,4]diazepin-5-one] showed an IC50 of 2 nM.

For the molecule `CC1c2ccccc2N(C)C(=O)CN1C1CC2(C1)CN(S(=O)(=O)c1ccccc1F)C2` (stereo not shown) [Example 248], the IC50 was found to be 731 nM.

In turn, `CCn1c2ccccc2c(=O)n1C1CC2(C1)CN(S(=O)(=O)c1ccccc1)C2` [Example 250, 2-[2-benzenesulfonyl-2-azaspiro[3.3]heptan-6-yl]-1-ethyl-indazol-3-one] gave an IC50 of 214 nM.

The molecule `C[C@@H]1CNc2nc(Cl)ccc2C(=O)N1C1CC2(C1)CN(S(=O)(=O)c1ccccc1F)C2` [Example 251, (3R)-8-chloro-4-[2-(2-fluorophenyl)sulfonyl-2-azaspiro[3.3]heptan-6-yl]-3-methyl-2,3-dihydro-1H-pyrido[2,3-e][1,4]diazepin-5-one] had an IC50 of 1 nM.

On to `C[C@@H]1CNc2cc(Cl)cnc2C(=O)N1C1CC2(C1)CN(S(=O)(=O)c1ccccc1F)C2` [Example 253], for which the IC50 is 8 nM. This IC50 lies about 8-fold higher than the previous one.

As for `C[C@@H]1CNc2cc(C(F)(F)F)cnc2C(=O)N1C1CC2(C1)CN(S(=O)(=O)c1ccccc1F)C2` [Example 254], the IC50 amounted to 2 nM.

`C[C@@H]1CNc2ncccc2C(=O)N1C1CC2(C1)CN(S(=O)(=O)c1ccccc1F)C2` [Example 255]: the IC50 is 7 nM.

The molecule `C[C@@H]1CNc2ncc(C(F)(F)F)cc2C(=O)N1C1CC2(C1)CN(S(=O)(=O)c1ccccc1F)C2` [Example 256] had an IC50 of 3 nM.

Consider `C[C@@H]1CNc2ncc(C(F)(F)F)cc2C(=O)N1C1CC2(C1)CN(S(=O)(=O)c1ccccc1[N+](=O)[O-])C2` [Example 257], for which half-maximal inhibition (IC50) required 61 nM.

`C[C@@H]1CNc2nc(C3CC3)ccc2C(=O)N1C1CC2(C1)CN(S(=O)(=O)c1ccccc1F)C2` [Example 258, (3R)-8-cyclopropyl-4-[2-(2-fluorophenyl)sulfonyl-2-azaspiro[3.3]heptan-6-yl]-3-methyl-2,3-dihydro-1H-pyrido[2,3-e][1,4]diazepin-5-one] displayed an IC50 of 1 nM.

These data come from US20260132127A1, “NOVEL SPIRO COMPOUND” (MITSUBISHI TANABE PHARMA CORPORATION, priority 2021, published 2026).
